# Reference: patent US20220380314A1, “SUBSTITUTED, SATURATED AND UNSATURATED N-HETEROCYCLIC CARBOXAMIDES AND RELATED COMPOUNDS FOR THEIR USE IN THE TREATMENT OF MEDICAL DISORDERS” (Bial - R&D Investments, S.A., priority 2019, published 2022)
# What was measured:
# [1] = target: T1, acid ceramidase (hACR) (Homo sapiens, UniProt Q13510); experiment: Acid ceramidase inhibition, biochemical fluorescent assay with cell lysates overexpressing acid ceramidase, substrate Rbm14-12; conditions: cell lysates overexpressing acid ceramidase; 1 hr preincubation at RT; pH 4.5; substrate Rbm14-12 6.3 μM; read-out: hACR IC50
# T1 construct: expressed in transfected cells; cell lysate used
# T1 sequence (Q13510 143-395 limits assumed): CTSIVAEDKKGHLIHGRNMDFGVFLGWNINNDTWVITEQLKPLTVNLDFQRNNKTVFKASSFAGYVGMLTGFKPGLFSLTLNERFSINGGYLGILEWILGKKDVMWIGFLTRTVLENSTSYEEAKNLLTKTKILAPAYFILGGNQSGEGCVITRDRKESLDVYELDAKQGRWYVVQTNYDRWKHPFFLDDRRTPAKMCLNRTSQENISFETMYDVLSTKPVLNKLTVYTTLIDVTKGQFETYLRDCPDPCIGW
# T1 sequence (Q13510 22-142 limits assumed): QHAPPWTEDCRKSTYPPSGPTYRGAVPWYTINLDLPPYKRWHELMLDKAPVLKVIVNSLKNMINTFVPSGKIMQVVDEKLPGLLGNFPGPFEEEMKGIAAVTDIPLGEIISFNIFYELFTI
# How it was run: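 Enzyme source was lysate (10 µg protein) from cells overexpressing acid ceramidase, preincubated 1 hr at RT with compound dose series in 25 mM NaAc, 100 mM NaCl, pH 4.5. Rbm14-12 (6.3 μM final) reacted 1 hr at RT; stop buffer (methanol, NaIO4, glycine, pH 10.6) 1 hr, fluorescence ex360/em446; IC50 from four-parameter fit.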
# [2] = Compound solubility in water; assay type: physicochemical
SMILES,IC50 [1],solubility [2]
"Cn1ccnc1-c1ccc2c(c1)N(C(=O)NCCc1ccccc1)C(C)(C)CC2 [Example 12, 2,2-Dimethyl-7-(1-methyl-1H-imidazol-2-yl)-N-phenethyl-3,4-dihydroquinoline-1(2H)-carboxamide]",> 1000 nM,26.6 µM
"Cn1ccnc1-c1cccc2c1CCC(C)(C)N2C(=O)NCCc1ccccc1 [Example 13, 2,2-Dimethyl-5-(1-methyl-1H-imidazol-2-yl)-N-phenethyl-3,4-dihydroquinoline-1(2H)-carboxamide]",> 1000 nM,33.6 µM
"CC1(C)c2ccccc2CCN1C(=O)NCCc1ccccc1 [Example 15, 1,1-Dimethyl-N-phenethyl-3,4-dihydroisoquinoline-2(1H)-carboxamide]",> 1000 nM,0.9 µM
"CC1(C)COc2ccccc2N1C(=O)NCCc1ccccc1 [Example 16, 3,3-Dimethyl-N-phenethyl-2H-benzo[b][1,4]oxazine-4(3H)-carboxamide]",> 1000 nM,3.1 µM
"CC1(C)CC2(CCCCO2)CCN1C(=O)NCCc1ccccc1 (stereo not shown) [Example 17, 8,8-Dimethyl-N-phenethyl-1-oxa-9-azaspiro[5.5]undecane-9-carboxamide]",200 to 1000 nM,28.5 µM
"CC1(C)CCc2ccccc2N1C(=O)NCCOc1ccccc1 [Example 18, 2,2-Dimethyl-N-(2-phenoxyethyl)-3,4-dihydroquinoline-1(2)-carboxamide]",200 to 1000 nM,1.5 µM
"CN1CCC(c2cccc3c2CN(C(=O)NCCc2ccccc2)C(C)(C)C3)CC1 [Example 20, 3,3-Dimethyl-8-(1-methylpiperidin-4-yl)-N-phenethyl-3,4-dihydroisoquinoline-2(1H)-carboxamide]",200 to 1000 nM,32.2 µM
"CC1(C)Cc2ccccc2CN1C(=O)NCCc1ccccc1 [Example 22, 3,3-Dimethyl-N-phenethyl-3,4-dihydroisoquinoline-2(1H)-carboxamide]",200 to 1000 nM,5.7 µM
"CC1(C)CCCCN1C(=O)NCCc1ccccc1 [Example 25, 2,2-Dimethyl-N-phenethylpiperidine-1-carboxamide]",200 to 1000 nM,23.2 µM
"CC1(C)CC(=O)c2ccccc2N1C(=O)NCCc1ccccc1 [Example 28, 2,2-Dimethyl-4-oxo-N-phenethyl-3,4-dihydroquinoline-1(2H)-carboxamide]",> 1000 nM,3.1 µM
"CCCCNC(=O)N1CCC2(CCCCO2)CC1(C)C (stereo not shown) [Example 31, N-Butyl-8,8-dimethyl-1-oxa-9-azaspiro[5.5]undecane-9-carboxamide]",> 1000 nM,32 µM
"CCCCNC(=O)N1CCN(C)CC1(C)C [Example 37, N-Butyl-2,2,4-trimethylpiperazine-1-carboxamide]",> 1000 nM,19.1 µM
"CC1(C)CC2(CCCCO2)CCN1C(=O)NCCCCC1CC1 (stereo not shown) [Example 43, N-(4-Cyclopropylbutyl)-8,8-dimethyl-1-oxa-9-azaspiro[5.5]undecane-9-carboxamide]",200 to 1000 nM,16.5 µM
"C=CCCCCNC(=O)N1CCC2(CCCCO2)CC1(C)C (stereo not shown) [Example 44, N-(Hex-5-en-1-yl)-8,8-dimethyl-1-oxa-9-azaspiro[5.5]undecane-9-carboxamide]",200 to 1000 nM,20.8 µM
"O=C(NCCc1ccccc1)N1CCCCC12CCCC2 [Example 45, N-Phenethyl-6-azaspiro[4.5]decane-6-carboxamide]",200 to 1000 nM,6 µM
"O=C(NCCc1ccccc1)N1CCCCC12CCC2 [Example 46, N-Phenethyl-5-azaspiro 3.5 nonane-5-carboxamide]",> 1000 nM,17.5 µM
"CC1(C)CCc2c(C#N)cccc2N1C(=O)NCCc1ccccc1 [Example 47, 5-cyano-2,2-dimethyl-N-phenethyl-3,4-dihydroquinoline-1(2H)-carboxamide]",200 to 1000 nM,1.7 µM
CN1CC(c2ccc3c(c2)N(C(=O)NCCc2ccccc2)C(C)(C)CC3)C1 [Example 50],< 200 nM,32.2 µM
CC1(C)CCc2ccc(C3COC3)cc2N1C(=O)NCCc1ccccc1 [Example 52],200 to 1000 nM,5 µM
"CC1(C)COCCN1C(=O)NCCc1ccccc1 [Example 53, 3,3-Dimethyl-N-phenethylmorpholine-4-carboxamide]",> 1000 nM,25.6 µM
"CC1(C)CCCN1C(=O)NCCc1ccccc1 [Example 54, 2,2-Dimethyl-N-phenethylpyrrolidine-1-carboxamide]",> 1000 nM,25.6 µM

# Results, then the molecule that gave them:
IC50 [1],solubility [2],SMILES
200 to 1000 nM,8.1 µM,"CC1(C)CCc2c(N3CCOCC3)cccc2N1C(=O)NCCc1ccccc1 [Example 11, 2,2-Dimethyl-5-morpholino-N-phenethyl-3,4-dihydroquinoline-1(2H)-carboxamide]"
> 1000 nM,24 µM,"CC1(C)c2ncccc2CCN1C(=O)NCCc1ccccc1 [Example 14, 8,8-Dimethyl-N-phenethyl-5,6-dihydro-1,7-naphthyridine-7(8H)-carboxamide]"
200 to 1000 nM,6.5 µM,"COC1CC(C)(C)N(C(=O)NCCc2ccccc2)c2ccccc21 (stereo not shown) [Example 19, 4-Methoxy-2,2-dimethyl-N-phenethyl-3,4-dihydroquinoline-1(2)-carboxamide]"
> 1000 nM,34.2 µM,"CN1CCC(c2ccc3c(c2)CC(C)(C)N(C(=O)NCCc2ccccc2)C3)CC1 [Example 21, 3,3-Dimethyl-6-(1-methylpiperidin-4-yl)-N-phenethyl-3,4-dihydroisoquinoline-2(1H)-carboxamide]"
200 to 1000 nM,33.6 µM,"CN1CCC(c2ccc3c(c2)CCC(C)(C)N3C(=O)NCCc2ccccc2)CC1 [Example 23, 2,2-Dimethyl-6-(1-methylpiperidin-4-yl)-N-phenethyl-3,4-dihydroquinoline-1(2H)-carboxamide]"
200 to 1000 nM,40.6 µM,"CCCCNC(=O)N1c2cccc(C3CCN(C)CC3)c2CCC1(C)C [Example 24, N-Butyl-2,2-dimethyl-5-(1-methylpiperidin-4-yl)-3,4-dihydroquinoline-1(2H)-carboxamide]"
> 1000 nM,43.7 µM,"CN1CCN(C2CCN(C(=O)NCCc3ccccc3)C(C)(C)C2)CC1 (stereo not shown) [Example 26, 2,2-Dimethyl-4-(4-methylpiperazin-1-yl)-N-phenethylpiperidine-1-carboxamide]"
200 to 1000 nM,16.8 µM,"CCCCNC(=O)N1c2ccccc2CCC1(C)C [Example 27, N-Butyl-2,2-dimethyl-3,4-dihydroquinoline-1(2H)-carboxamide]"
> 1000 nM,31.7 µM,"CN1CCN(c2cccc3c2CCC(C)(C)N3C(=O)NCCc2ccccc2)CC1 [Example 29, 2,2-Dimethyl-5-(4-methylpiperazin-1-yl)-N-phenethyl-3,4-dihydroquinoline-1(2H)-carboxamide]"
200 to 1000 nM,36.4 µM,"CN1CCN(c2ccc3c(c2)CCC(C)(C)N3C(=O)NCCc2ccccc2)CC1 [Example 30, 2,2-Dimethyl-6-(4-methylpiperazin-1-yl)-N-phenethyl-3,4-dihydroquinoline-1(2H)-carboxamide]"
200 to 1000 nM,22.7 µM,"CCCCNC(=O)N1c2cccc(N3CCN(C)CC3)c2CCC1(C)C [Example 33, N-Butyl-2,2-dimethyl-5-(4-methylpiperazin-1-yl)-3,4-dihydroquinoline-1(2H)-carboxamide]"
> 1000 nM,23.6 µM,"CN1CCN(C(=O)NCCc2ccccc2)C(C)(C)C1 [Example 34, 2,2,4-Trimethyl-N-phenethylpiperazine-1-carboxamide]"
200 to 1000 nM,6.02 µM,"CC1(C)CCc2cccc(F)c2N1C(=O)NCCc1ccccc1 [Example 35, 8-Fluoro-2,2-dimethyl-N-phenethyl-3,4-dihydroquinoline-1(2H)-carboxamide]"
> 1000 nM,35.8 µM,CCCCNC(=O)N1CCN(C2CCCN(C)C2)CC1(C)C (stereo not shown) [Example 38]
> 1000 nM,34.8 µM,"CCCCNC(=O)N1CCC(OC2CCN(C)CC2)CC1(C)C (stereo not shown) [Example 39, N-Butyl-2,2-dimethyl-4-((1-methylpiperidin-4-yl)oxy)piperidine-1-carboxamide]"
< 200 nM,23.4 µM,"CC1(C)CCCCN1C(=O)NCCCc1ccccc1 [Example 40, 2,2-Dimethyl-N-(3-phenylpropyl)piperidine-1-carboxamide]"
200 to 1000 nM,3.7 µM,"CC(C)CCNC(=O)N1CCC(Oc2ccccc2)CC1(C)C (stereo not shown) [Example 41, N-iso-Pentyl-2,2-dimethyl-4-phenoxypiperidine-1-carboxamide]"
> 1000 nM,7 µM,"CC(C)CCNC(=O)N1CCN(c2ccccc2)CC1(C)C [Example 42, N-iso-Pentyl-2,2-dimethyl-4-phenylpiperazine-1-carboxamide]"
200 to 1000 nM,35.3 µM,CN1CC(c2cccc3c2CCC(C)(C)N3C(=O)NCCc2ccccc2)C1 [Example 49]
200 to 1000 nM,0.9 µM,CC1(C)CCc2c(C3COC3)cccc2N1C(=O)NCCc1ccccc1 [Example 51]
